According to patent US20240150293A1, “SPIROCYCLOHEXANE DERIVATIVES, PHARMACEUTICAL COMPOSITIONS CONTAINING THEM AND THEIR USES AS ANTI-APOPTOTIC INHIBITORS” (LES LABORATOIRES SERVIER, priority 2021, published 2024):

Molecular target: Cy5-labelled Mcl1 (amino acids 171-321) C286S protein (UniProtKB Q07820) (Homo sapiens (Human), UniProt Q07820, C286S)
Test: Inhibition of Mcl-1 by the fluorescence quenching assay (Example A, Method B)
Type: binding
Conditions: not given
From the text: Fluorescence quenching assay measures the change fluorescence intensity of C-terminally Cy5-labelled Mcl1 (amino acids 171-321) C286S protein (UniProtKB® primary accession number Q07820) having an amino acid sequence:
which is linked at the C-terminus to the amino acid X which corresponds to a cysteine labelled on the sulfur with sulpho-Cyanine5 from Lumiprobe GmbH catalogue number 13380, upon binding of a C-terminally labelled peptide derived from PUMA (UniProtKB® primary accession number Q9BXH1) having an amino acid sequence:
which is linked at the C-terminus to the amino acid X′, where X′ is cysteine labelled on the sulfur with TQ5WS from AAT Bioquest catalogue number 2079.
The addition of a compound which binds competitively to the same site as the peptide will result in an increase in the fluorescence intensity of the protein due to displacement of the fluorescence quencher.
An 11-point serial dilution of each compound was prepared in DMSO, the final buffer conditions were 10 mM 4-(2-hydroxyethyl)-1-piperazineethanesulfonic acid [HEPES], 150 mM NaCl, 0.05% Tween 20, pH 7.4 and 5% DMSO. The final protein concentration in the assay was 1 nM with the peptide present at 10, 20 or 400 nM. The experiments were incubated for 2 hours at room temperature before fluorescence intensity was measured on a Biotek SynergyNeo plate reader (Excitation 620 nm, emission 680 nm). The dose response curves were plotted with XL-Fit software using a 4-Parameter Logistic Model (Sigmoidal DoseResponse Model) and the inhibitory concentrations that gave a 50% increase in fluorescence intensity was determined (IC50). The Ki values were determined from the IC50 values according to Cer et al, Nucleic Acids Res, 2009, 37 (WebServer issue): W441-W445. Inhibition constants (Ki) are determined from complete binding inhibition curves (cKi) or from estimated from incomplete binding inhibition curves (eKi) in most cases due to low activity.

Cy5-labelled Mcl1 (amino acids 171-321) C286S protein, sequence (Q07820 171-321 C286S): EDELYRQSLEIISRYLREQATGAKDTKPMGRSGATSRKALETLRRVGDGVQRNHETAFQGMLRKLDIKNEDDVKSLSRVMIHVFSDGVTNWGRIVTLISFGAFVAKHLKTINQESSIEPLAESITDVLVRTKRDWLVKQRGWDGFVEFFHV

SMILES	Ki
O=C(O)[C@]1(Nc2cccc(Cl)c2)CC[C@@]2(CC1)c1ccccc1C[C@H]2CCCOc1cccc2[nH]ccc12 [Example 485, (1r,2′R,4R)-4-(3-chloroanilino)-2′-{3-[(1H-indol-4-yl)oxy]propyl}-2′,3′-dihydrospiro[cyclohexane-1,1′-indene]-4-carboxylic acid]	45.5 nM
O=C(O)[C@]1(Nc2cccc(Cl)c2)CC[C@@]2(CC1)c1ccccc1CC2CC(F)(F)COc1ccnc2c1CCC2 (stereo partly drawn) [Example 503, (1r,4r)-4-(3-chloroanilino)-2′-{3-[(6,7-dihydro-5H-cyclopenta[b]pyridin-4-yl)oxy]-2,2-difluoropropyl}-2′,3′-dihydrospiro[cyclohexane-1,1′-indene]-4-carboxylic acid]	63.8 nM
O=C(O)[C@]1(Nc2cccc(Cl)c2)CC[C@@]2(CC1)c1ccccc1C[C@@H]2CCCOc1cccc2[nH]ccc12 [Example 486, (1r,2′S,4S)-4-(3-chloroanilino)-2′-{3-[(1H-indol-4-yl)oxy]propyl}-2′,3′-dihydrospiro[cyclohexane-1,1′-indene]-4-carboxylic acid]	82 nM
Cc1ccc2[nH]ccc2c1OCCC[C@H]1Cc2ccccc2[C@]12CC[C@@](Nc1cccc(Cl)c1)(C(=O)O)CC2 [Example 490, (1r,2′S,4S)-4-(3-chloroanilino)-2′-{3-[(5-methyl-1H-indol-4-yl)oxy]propyl}-2′,3′-dihydrospiro[cyclohexane-1,1′-indene]-4-carboxylic acid]	61.8 nM
O=C(O)[C@]1(Nc2cccc(Cl)c2)CC[C@@]2(CC1)c1ccccc1CC2CC(F)COc1ccnc2c1CCC2 (mixture of isomers) [Example 504, (1r,4r)-4-(3-chloroanilino)-2′-{3-[(6,7-dihydro-5H-cyclopenta[b]pyridin-4-yl)oxy]-2-fluoropropyl}-2′,3′-dihydrospiro[cyclohexane-1,1′-indene]-4-carboxylic acid]	29.9 nM

Continued, values first:

Ki	SMILES
123 nM	CC(CC1Cc2ccccc2[C@]12CC[C@@](Nc1cccc(Cl)c1)(C(=O)O)CC2)C(C)Oc1ccnc2c1CCC2 (single isomer, unassigned) [Example 614, (1r,4r)-4-(3-chloroanilino)-2′-{3-[(6,7-dihydro-5H-cyclopenta[b]pyridin-4-yl)oxy]-2-methylbutyl}-2′,3′-dihydrospiro[cyclohexane-1,1′-indene]-4-carboxylic acid]
27.9 nM	O=C(O)[C@]1(Nc2cccc(Cl)c2)CC[C@@]2(CC1)c1ccccc1CC2CC(COc1ccnc2c1CCCC2)C(F)F (single isomer, unassigned) [Example 513, (1r,4r)-4-(3-chloroanilino)-2′-(3,3-difluoro-2-{[(5,6,7,8-tetrahydroquinolin-4-yl)oxy]methyl}propyl)-2′,3′-dihydrospiro[cyclohexane-1,1′-indene]-4-carboxylic acid]
93.5 nM	CC(CC1Cc2ccccc2[C@]12CC[C@@](Nc1cccc(Cl)c1)(C(=O)O)CC2)C(C)Oc1ccnc2c1CCC2 (single isomer, unassigned) [Example 617, (1r,4r)-4-(3-chloroanilino)-2′-{3-[(6,7-dihydro-5H-cyclopenta[b]pyridin-4-yl)oxy]-2-methylbutyl}-2′,3′-dihydrospiro[cyclohexane-1,1′-indene]-4-carboxylic acid]
44.1 nM	C[C@@H](COc1cccc2[nH]ccc12)CC1Cc2ccccc2[C@]12CC[C@@](Nc1cccc(Cl)c1)(C(=O)O)CC2 (stereo partly drawn) [Example 594, (1r,4R)-4-(3-chloroanilino)-2′-{(2R)-3-[(1H-indol-4-yl)oxy]-2-methylpropyl}-2′,3′-dihydrospiro[cyclohexane-1,1′-indene]-4-carboxylic acid]
2.8 nM	CC1CCN(C)c2nccc(OC[C@H](C)C[C@H]3Cc4ccccc4[C@]34CC[C@@](Nc3cccc(Cl)c3)(C(=O)O)CC4)c21 (single isomer, unassigned) [Example 644]
12.1 nM	C[C@H](C[C@H]1Cc2ccccc2[C@]12CC[C@@](Nc1cccc(Cl)c1)(C(=O)O)CC2)[C@@H](C)Oc1ccnc2c1CCC2 [Example 616, (1r,2′S,4S)-4-(3-chloroanilino)-2′-{(2R,3R)-3-[(6,7-dihydro-5H-cyclopenta[b]pyridin-4-yl)oxy]-2-methylbutyl}-2′,3′-dihydrospiro[cyclohexane-1,1′-indene]-4-carboxylic acid]

Same assay, conditions: Ki determined from IC50

Ki	SMILES
424 nM	O=C(O)[C@]1(Nc2cccc(C(F)(F)F)c2)CC[C@]2(CC1)C(Br)=Cc1ccccc12 [Example 85, (1s,4s)-2′-bromo-4-[3-(trifluoromethyl)anilino]spiro[cyclohexane-1,1′-indene]-4-carboxylic acid]
437 nM	N#Cc1cccc(N[C@]2(C(=O)O)CC[C@@]3(CC2)C(Br)=Cc2ccccc23)c1 [Example 82, (1s,4s)-2′-bromo-4-(3-cyanoanilino)spiro[cyclohexane-1,1′-indene]-4-carboxylic acid]

Tested on: H929 multiple myeloma tumor line
Test: In vitro cytotoxicity, MTT assay (Example B, Method A)
Type: cell-based
Conditions: H929 cells, 48 hours exposure, read-out: C50
Procedure: The cytotoxicity studies were carried out on the H929 multiple myeloma tumor line.
The cells are distributed onto microplates and exposed to the test compounds for 48 hours. The cell viability is then quantified by a colorimetric assay, the Microculture Tetrazolium Assay (Carmichael et al, Cancer Res. 1987, 47, 939-942).
The results are expressed in C50 which means concentration corresponding to […] of effect/inhibition.

SMILES	IC50
CC(C)C(COc1ccnc2ccsc12)CC1Cc2ccccc2[C@]12CC[C@@](Nc1cccc(Cl)c1)(C(=O)O)CC2 (single isomer, unassigned) [Example 524, (1r,4r)-4-(3-chloroanilino)-2′-(3-methyl-2-{[(thieno[3,2-b]pyridin-7-yl)oxy]methyl}butyl)-2′,3′-dihydrospiro[cyclohexane-1,1′-indene]-4-carboxylic acid]	30000 nM
CC(C)C(COc1ccnc2ccsc12)CC1Cc2ccccc2[C@]12CC[C@@](Nc1cccc(Cl)c1)(C(=O)O)CC2 (single isomer, unassigned) [Example 523, (1r,4r)-4-(3-chloroanilino)-2′-(3-methyl-2-{[(thieno[3,2-b]pyridin-7-yl)oxy]methyl}butyl)-2′,3′-dihydrospiro[cyclohexane-1,1′-indene]-4-carboxylic acid]	16400 nM

Same assay, conditions: Homo sapiens, NCI-H929, 48 h, H929 cells, 48 hours exposure, read-out: C50

SMILES	IC50
C[C@@H](COc1cccc2ncsc12)C[C@H]1Cc2ccccc2[C@]12CC[C@@](Nc1cccc(Cl)c1)(C(=O)O)CC2 [Example 625, (1r,2′S,4S)-2′-{(2R)-3-[(1,3-benzothiazol-7-yl)oxy]-2-methylpropyl}-4-(3-chloroanilino)-2′,3′-dihydrospiro[cyclohexane-1,1′-indene]-4-carboxylic acid]	6590 nM
CCC1CC(O)c2nccc(OC[C@H](C)C[C@H]3Cc4ccccc4[C@]34CC[C@@](Nc3cccc(Cl)c3)(C(=O)O)CC4)c21 (stereo partly drawn) [Example 624, (1r,2′S,4S)-4-(3-chloroanilino)-2′-{(2R)-3-[(5-ethyl-7-hydroxy-6,7-dihydro-5H-cyclopenta[b]pyridin-4-yl)oxy]-2-methylpropyl}-2′,3′-dihydrospiro[cyclohexane-1,1′-indene]-4-carboxylic acid]	525 nM
C[C@@H](COc1ccnc2[nH]ccc12)C[C@H]1Cc2ccccc2[C@]12CC[C@@](Nc1cccc(Cl)c1)(C(=O)O)CC2 [Example 626, (1r,2′S,4S)-4-(3-chloroanilino)-2′-{(2R)-2-methyl-3-[(1H-pyrrolo[2,3-b]pyridin-4-yl)oxy]propyl}-2′,3′-dihydrospiro[cyclohexane-1,1′-indene]-4-carboxylic acid]	540 nM
